Measured values reported in patent US12673022B2, “Drug delivery system using solution” (Kyoto University, priority 2018, dated 2026).

How the values were obtained:
[1] = system: EGFP reporter cells (C2C12 cells); test: EGFP-SSA assay: uptake of Cas9 protein/gRNA complex into cells (EGFP positive rate); format: cell-based, mouse; details: for Compound activity: EGFP positive rate (%): reaction solution 1 (550 mM sodium chloride, 1 mM HEPES, Cas9 protein/gRNA), 30 minutes; for EGFP positive rate: Example 4, compound 250 mM, FIG. 8
[2] = system: EGFP reporter cells (C2C12 cells); test: Number of HOECHST cells detected (cell viability) in the EGFP-SSA assay; details: Example 1, formula (2)
[3] = system: EGFP reporter cells (C2C12 cells); test: EGFP-SSA assay: uptake of Cas9 protein/gRNA complex into cells (EGFP positive rate); format: cell-based, mouse; details: for Compound activity: EGFP positive rate (%): Example 1, compound 250.0 mM, reaction solution 1 (550 mM sodium chloride, 1 mM HEPES, Cas9 protein/gRNA), 30 minutes; for EGFP positive rate (activity) with different (B) salts: Example 3, reaction solutions 3-1 to 3-6: 250 mM GABA, 50 mM HEPES, salt varied, FIG. 7
From the text: EGFP-SSA assay: an abbreviation of EGFP-single strand annealing assay. The reporter cassette shown in FIG. 1 is inserted in EGFP reporter cells. In the middle of the EGFP sequence of the cassette, MmDMD-Ex51 sequence is inserted. Since the presence of MmDMD-Ex51 sequence, by which EGFP ORF is divided, EGFP protein is not usually translated. However, when target sequence of MmDMD-Ex51 is cleaved by Cas9 protein/gRNA complex, the upstream region (EG part) and the downstream region (FP part) of EGFP ORF are annealed via a homology area into a single strand, with the result that a full-length EGFP ORF emerges to produce EGFP protein. Based on this principle, the ratio of the number of cells producing EGFP is checked by the EGFP-SSA assay. In this manner, the amount of Cas9 protein/gRNA complex delivered to cells can be predicted.
(§1) Cas9 protein (0.4 μg), tracrRNA (34.18 ng), MmDmd Ex51 crRNA (29.48 ng), a 1 M HEPES buffer (0.05 μL) and a 5 M aqueous sodium chloride solution (5.5 μL) were mixed and diluted with UltraPure DNase/RNase-Free Distilled Water up to a liquid volume of 37.5 μL so as to obtain final concentrations: 8 ng/μL Cas9 protein, 0.68 ng/μL tracrRNA, 0.59 ng/μL MmDmd Ex51 crRNA, 1 mM HEPES, 550 mM sodium chloride, and 250 mM compound. To this solution, a 1000 mM compound solution (12.5 μL) was added and the solution mixture was incubated at normal temperature for 15 minutes.
as §1, with “buffer (2.5” for “buffer (0.05”, “solution (4.85” for “solution (5.5”, “crRNA, 50” for “crRNA, 1”, “HEPES, 485” for “HEPES, 550”, “minutes. Note that, in the cases where the final concentrations of the compound are 0.69 mM, 25 mM, 100 mM, 125 mM, 160 mM, 200 mM and 500 mM, the compound stock solution was diluted with UltraPure DNase/RNase-Free Distilled Water up to concentrations of 2.76 mM, 100 mM, 400 mM, 500 mM, 640 mM, 800 mM and 2000 mM, respectively, and then, added. […]” for “minutes.”
Cas9 protein (2.0 μg), tracrRNA (170.9 ng), MmDmd Ex51 crRNA (147.4 ng), a 1 M HEPES buffer (12.5 μL), a 5 M aqueous sodium chloride solution (18.35 μL) and a 1 M aqueous GABA solution (62.5 μL) were mixed, diluted with UltraPure DNase/RNase-Free Distilled Water up to a liquid volume of 250 μL so as to obtain final concentrations: 8 ng/μL Cas9 protein, 0.68 ng/μL tracrRNA, 0.59 ng/μL MmDmd Ex51 crRNA, 50 mM HEPES, 250 mM GABA and 367 mM sodium chloride, and incubated at normal temperature for 15 minutes. Note that the addition amount of the 5 M aqueous sodium chloride solution was changed to 24.25 μL in the case of 485 mM sodium chloride and the addition amount was changed to 27.5 μL in the case of 550 mM sodium chloride, respectively.

[4] = compound 500.0 mM vs 250 mM GABA positive control on the same plate
[5] = compound 250.0 mM vs 250 mM GABA positive control on the same plate
[6] = compound 200.0 mM vs 250 mM GABA positive control on the same plate
[7] = compound 125.0 mM vs 250 mM GABA positive control on the same plate

`CC(O)CCO` (stereo not shown) [1,3-Butylene glycol] was tested, and the “Compound activity: EGFP positive rate (%)” value (“Compound activity … (%)” below) ([1]; Example 1, compound 0.69 mM) was 3.62% and the “Relative ratio to GABA: Number of HOECHST cells” value (“Relative ratio to GABA: Number” for short) ([2]; compound 0.69 mM vs 250 mM GABA positive control on the same plate) was 1.03.

With `CNC(=O)NC` [1,3-Dimethylurea] the “Compound activity … (%)” value ([1]; Example 1, compound 500.0 mM) was 2.64% and the “Relative ratio to GABA: Number” value [2, 4] was 0.68.

In the case of `Cn1cnc(C[C@H](N)C(=O)O)c1` [1-Methyl-L-histidine], the “Compound activity … (%)” value [3] is reported as 3.54% and the “Relative ratio to GABA: Number” value [2, 5] is reported as 0.68.

In the case of `O=C(O)CCC(O)C(=O)O` (stereo not shown) [2-Hydroxyglutaric acid], the “Compound activity … (%)” value [3] is reported as 1.89% and the “Relative ratio to GABA: Number” value [2, 5] is reported as 0.83.

In the case of `O=c1ccn([C@H]2C[C@H](O)[C@@H](CO)O2)c(=O)[nH]1` [2′-Deoxyuridine], the “Compound activity … (%)” value ([1]; Example 1, compound 100.0 mM) is reported as 1.10% and the “Relative ratio to GABA: Number” value ([2]; compound 100.0 mM vs 250 mM GABA positive control on the same plate) is reported as 0.88.

For `O=C(O)[C@@H]1CC(O)CN1` (stereo partly shown) [4-Hydroxyproline], the “Compound activity … (%)” value ([1]; Example 1, compound 500.0 mM) was 35.82% and the “Relative ratio to GABA: Number” value [2, 4] was 0.62.

With `O=C(O)[C@H](O)[C@@H](O)[C@H](O)[C@H](O)COP(=O)(O)O` [6-Phospho-D-gluconic acid] the “Compound activity … (%)” value [3] was 2.61% and the “Relative ratio to GABA: Number” value [2, 5] was 1.31.

`CC(C)(CO)[C@@H](O)C(=O)NCCC(=O)O` [Calcium pantothenate] was tested, and the “Compound activity … (%)” value ([1]; Example 1, compound 160.0 mM) was 0.25% and the “Relative ratio to GABA: Number” value ([2]; compound 160.0 mM vs 250 mM GABA positive control on the same plate) was 1.50.

`CN1CC(=O)NC1=N` [Creatinine] was tested, and the “Relative ratio to GABA: EGFP positive rate (%)” value ([1]; Example 1, compound 200.0 mM vs 250 mM GABA positive control on the same plate, formula (1)) was 2.50, the “Compound activity … (%)” value ([1]; Example 1, compound 200.0 mM) was 2.27% and the “Relative ratio to GABA: Number” value [2, 6] was 0.84.

`Nc1ccn([C@@H]2O[C@H](CO)[C@@H](O)[C@H]2O)c(=O)n1` [Cytidine] was tested, and the “Compound activity … (%)” value ([1]; Example 1, compound 125.0 mM) was 2.24% and the “Relative ratio to GABA: Number” value [2, 7] was 1.58.

With `Nc1cc[nH]c(=O)n1` [Cytosine] the “Compound activity … (%)” value ([1]; Example 1, compound 25.0 mM) was 0.61% and the “Relative ratio to GABA: Number” value ([2]; compound 25.0 mM vs 250 mM GABA positive control on the same plate) was 0.77.

`OC[C@H]1O[C@@H](O[C@H]2[C@H](O)[C@@H](O)[C@H](O)O[C@@H]2CO)[C@H](O)[C@@H](O)[C@@H]1O` [D(+)-cellobiose] was tested, and the “Compound activity … (%)” value ([1]; Example 1, compound 200.0 mM) was 1.18% and the “Relative ratio to GABA: Number” value [2, 6] was 1.00.

For `NCCCC(=O)O` [GABA, γ-aminobutyric acid, reference compound], the EGFP positive rate ([3]; Example 4, sodium chloride 550 mM, compound 250 mM, FIG. 8) was 1.4%, the “Compound activity … (%)” value ([1]; Example 1, compound 200.0 mM) was 1.39% and the EGFP positive rate ([1]; sodium chloride 150 mM) was “less than 1%”. For the same compound, the EGFP positive rate ([1]; sodium chloride 350 mM) was “less than 1%” and the “Relative ratio to GABA: Number” value [2, 6] was 1.00.

With `NCCC(=O)N[C@@H](Cc1cnc[nH]1)C(=O)O` [L-Carnosine] the “Compound activity … (%)” value ([1]; Example 1, compound 125.0 mM) was 1.76% and the “Relative ratio to GABA: Number” value [2, 7] was 0.98.

For `OCCN1C[C@H](O)[C@@H](O)[C@H](O)[C@H]1CO` [Miglitol], the “Compound activity … (%)” value ([1]; Example 1, compound 125.0 mM) was 1.55% and the “Relative ratio to GABA: Number” value [2, 7] was 0.83.

With `CC(C)C(=O)C(=O)O` [Sodium 3-methyl-2-oxobutate] the “Compound activity … (%)” value ([1]; Example 1, compound 200.0 mM) was 1.71% and the “Relative ratio to GABA: Number” value [2, 6] was 0.53.

With `[Cl-].[Cl-].[Mg+2]` [magnesium chloride] the “EGFP positive rate (activity) with different (B) salts” value [3] was “almost the same activity”.

In the case of `[Cl-].[Na+]` [sodium chloride], the “EGFP positive rate (activity) with different (B) salts” value [3] is reported as “almost the same activity”.

In the case of `O=P(O)(O)O[C@H]1O[C@H](CO)[C@@H](O)[C@H](O)[C@H]1O` [α-D-Glucose-1-phosphate], the “Compound activity … (%)” value [3] is reported as 2.52% and the “Relative ratio to GABA: Number” value [2, 5] is reported as 1.29.
